# Assay results taken from patent US20230180804A1, “FLAVOR COMPOSITION, AND FOOD AND BEVERAGE” (TAKASAGO INTERNATIONAL CORPORATION, priority 2020, published 2023).
# Key:
# olfactory receptor OR9Q2 = biological target: T1, olfactory receptor OR9Q2 (Homo sapiens, UniProt Q8NGE9); experiment: OR9Q2 response inhibitory effect for p-cresol, luciferase reporter gene assay; type: cell-based; details: p-cresol 100 µM mixed with various concentrations of compound; cells expressing OR9Q2; ratio of Fold Increase value (FIGS. 1 to 11)
# T1 construct: 20 N-terminal amino acid residues of bovine rhodopsin (Rho tag); expressed in transfected cells; host or cells: HEK293T
# T1 sequence (Q8NGE9 1-314): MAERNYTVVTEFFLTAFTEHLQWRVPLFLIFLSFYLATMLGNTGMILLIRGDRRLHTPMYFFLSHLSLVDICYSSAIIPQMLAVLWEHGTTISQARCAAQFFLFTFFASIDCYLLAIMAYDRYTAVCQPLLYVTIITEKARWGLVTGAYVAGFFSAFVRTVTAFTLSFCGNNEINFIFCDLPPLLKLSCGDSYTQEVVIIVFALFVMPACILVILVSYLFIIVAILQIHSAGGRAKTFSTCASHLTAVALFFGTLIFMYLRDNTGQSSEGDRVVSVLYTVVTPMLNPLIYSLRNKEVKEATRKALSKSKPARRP
# Protocol: The human olfactory receptor gene was obtained by cloning from Human Genomic DNA: Female (Promega) by PCR method based on the sequence information registered in GenBank. The 20 N-terminal amino acid residues of bovine rhodopsin were incorporated into the pME18S vector, and the obtained human olfactory receptor gene was incorporated downstream thereof to obtain a human olfactory receptor gene expression vector.
# In 10 µL of Opti-MEM I (gibco), 0.05 µg of human olfactory receptor gene expression vector, 0.01 µg of RTP1S vector, 0.01 µg firefly luciferase vector pGL4.29 (Promega) containing cAMP response element promoter, and 0.005 µg of Renilla luciferase vector pGL4.74 (Promega) containing thymidine kinase promoter were dissolved to prepare a gene solution (for one well). HEK293T cells were seeded at 100 µL each in a 96-well plate (Biocoat, Coming) at the number of cells reaching confluence after 24 hours, and a gene solution was added to each well by the lipofection method according to the usage of Lipofectamine 3000 to introduce genes into the cells, and the cells were cultured at 37° C. in a 5% carbon dioxide atmosphere for 24 hours.
# After removing the culture medium, the resultant was prepared with CD293 (gibco) medium ([…] added) so as to have a concentration for measuring the aroma substance to be tested, 50 µL of which was added each and stimulated for 3 hours, and then luciferase activity was measured according to the method of using the Dual-Luciferase Reporter Assay System (Promega). The response intensity of the olfactory receptor polypeptide was expressed as a Fold Increase value obtained by dividing the luciferase activity produced by stimulating the aroma substance by the luciferase activity produced in the test system containing no aroma substance.
# p-Cresol at 100 µM was mixed with various concentrations of 1-oxacycloheptadecan-7-en-2-one, 1-oxacycloheptadecan-8-en-2-one, isoambrettolide, pentalide, muscone, civetone, 8-2-decenolactone, cinnamic aldehyde, […], sclareolide, and ethyl maltol, and receptor responses were measured in cells expressing OR9Q2. The ratio of the Fold Increase value in the test in which each compound was mixed was calculated, where the Fold Increase value in the test in none of these compounds was mixed was set to 100. FIGS. 1 to 11 present the results.
# [1] = Sensory evaluation of p-cresol odor masking in p-cresol-containing citrus-flavored beverage; details: for p-Cresol Odor Intensity: beverage with 50 ppb p-cresol, average score of 7 panelists, scale 0-4; for concentration at which the compound masks the p-cresol odor and does not affect the citrus flavor, lower limit / concentration at which the compound masks the p-cresol odor and does not affect the citrus flavor, upper limit: citrus-flavored beverage with 50 ppb p-cresol
# Protocol: To 2 g of lemon flavor obtained by making lemon oil into an essence, purified water was added to adjust the total amount to 1000 ml. To this citrus-flavored beverage, p-cresol adjusted to a concentration of 1% by mass with 95% ethanol was added to 50 ppb in the citrus-flavored beverage. To this p-cresol-containing citrus-flavored beverage, 1-oxacycloheptadecan-7-en-2-one was added at the concentrations presented in Table 1 to confirm the p-cresol odor intensity (masking effect) and the influence on the citrus flavor of each sample.
# For the test, seven skilled panelists were selected to perform sensory evaluation. The p-cresol odor intensity of the p-cresol-containing citrus-flavored beverage without added l-oxacycloheptadecan-7-en-2-one was determined as “Rating: 4,” and the p-cresol odor intensity of the p-cresol-free citrus-flavored beverage was determined as “Rating: 0,” and the p-cresol odor intensity (masking effect) of each sample was relatively evaluated according to the following evaluation criteria.
# In addition, the influence of the citrus-flavored beverage on the citrus flavor was evaluated absolutely according to the following evaluation criteria for the presence or absence of off- flavor other than p-cresol odor and citrus flavor (Off-Flavor Intensity).
# The results are as in Table 1, presenting the average score of the evaluation results for each panelist.
# [2] = Sensory evaluation of p-cresol odor masking in p-cresol-containing citrus-flavored confectionery (tablet); details: for p-Cresol Odor Intensity: tablet with 200 ppb p-cresol, average score of 6 panelists, scale 0-4; for concentration at which the compound masks the p-cresol odor and does not affect the citrus flavor, lower limit / concentration at which the compound masks the p-cresol odor and does not affect the citrus flavor, upper limit: citrus-flavored confectionery (tablet) with 200 ppb p-cresol
# Protocol: Lemon cold-pressed oil was added to the tablet having the composition presented in Table A at a concentration of 1 % by mass, and medium chain fatty acid triglycerides (MCT) was used to adjust p-cresol to a concentration of 0.1%, which was further added so as to reach 200 ppb in the citrus flavored confectionery. To this p-cresol-containing citrus-flavored confectionery, 1-oxacycloheptadecan-7-en-2-one was added at the concentrations presented in Table 12, and then tableting was performed to confirm the p-cresol odor intensity (masking effect) and the influence on the citrus flavor of each sample.
# Six skilled panelists were selected to perform the same sensory evaluation as in Example 1. The results are as in Table 12, presenting the average score of the evaluation results for each panelist.
# [3] = Sensory evaluation of p-cresol odor masking in p-cresol-containing lemon dressing; details: lemon dressing with 500 ppb p-cresol; for p-Cresol Odor Intensity: average score of 9 panelists, scale 0-4
# Protocol: To a commercially available lemon dressing, p-cresol adjusted to a concentration of 0.1% with 95% ethanol was added to 500 ppb in the lemon dressing. To this p-cresol-containing lemon dressing, l-oxacycloheptadecan-8-en-2-one was added at the concentrations presented in Table 18 to confirm the p-cresol odor intensity (masking effect) and the influence on the citrus flavor of each sample.
# Nine skilled panelists were selected to perform the same sensory evaluation as in Example 1. The results are as in Table 18, presenting the average score of the evaluation results for each panelist.
# [4] = Sensory evaluation of p-cresol odor masking in p-cresol-containing grated raw ginger; details: for p-Cresol Odor Intensity: grated ginger with 600 ppb p-cresol, average score of 9 panelists, scale 0-4
# Protocol: To commercially available grated raw ginger, p-cresol adjusted to a concentration of 0.1% with 95% ethanol was added to a concentration of 600 ppb in the ginger. To this p-cresol-containing ginger, 1-oxacycloheptadecan-8-en-2-one was added at the concentrations presented in Table 16 to confirm the p-cresol odor intensity (masking effect) and the influence on the ginger flavor of each sample.
# Nine skilled panelists were selected to perform the same sensory evaluation as in Example 1. The results are as in Table 16, presenting the average score of the evaluation results for each panelist.
# [5] = grated raw ginger with 600 ppb p-cresol
molecule,measurement,setting,value
"C=C1CC[C@H]2O[C@]2(C)CC[C@@H]2[C@@H]1CC2(C)C [β-caryophyllene Oxide, β-caryophyllene oxide]",effect of suppressing the response of OR9Q2 to p-cresol,olfactory receptor OR9Q2,suppressing the response of OR9Q2 to p-cresol in a concentration-dependent manner
same,p-Cresol Odor Intensity,[1]; 1 ppb added,2.1 points
same,p-Cresol Odor Intensity,[1]; 1 ppm added,1.0 points
same,p-Cresol Odor Intensity,[1]; 10 ppb added,1.7 points
same,p-Cresol Odor Intensity,[1]; 10 ppm added,1.0 points
same,p-Cresol Odor Intensity,[1]; 10 ppt added,3.9 points
same,p-Cresol Odor Intensity,[1]; 100 ppb added,1.6 points
same,p-Cresol Odor Intensity,[1]; 100 ppm added,0.4 points
same,p-Cresol Odor Intensity,[1]; 100 ppt added,2.6 points
same,"concentration at which the compound masks the p-cresol odor and does not affect the citrus flavor, lower limit",[1],≥ 100 ppt
same,"concentration at which the compound masks the p-cresol odor and does not affect the citrus flavor, upper limit",[1],≤ 1 ppm
ambrettolide,effect of suppressing the response of OR9Q2 to p-cresol,olfactory receptor OR9Q2,suppressing the response of OR9Q2 to p-cresol in a concentration-dependent manner
"C[C@@H]1CCCCCCCCCCCCC(=O)C1 [Muscone, muscone]",effect of suppressing the response of OR9Q2 to p-cresol,olfactory receptor OR9Q2,suppressing the response of OR9Q2 to p-cresol in a concentration-dependent manner
same,p-Cresol Odor Intensity,[1]; 0.001 ppt added,3.7 points
same,p-Cresol Odor Intensity,[1]; 0.01 ppt added,2.7 points
same,p-Cresol Odor Intensity,[1]; 0.1 ppt added,2.4 points
same,p-Cresol Odor Intensity,[1]; 1 ppb added,0.9 points
same,p-Cresol Odor Intensity,[1]; 1 ppt added,2.1 points
same,p-Cresol Odor Intensity,[1]; 10 ppb added,0.4 points
same,p-Cresol Odor Intensity,[1]; 10 ppt added,1.9 points
same,p-Cresol Odor Intensity,[1]; 100 ppb added,0.3 points
same,p-Cresol Odor Intensity,[1]; 100 ppt added,1.7 points
same,"concentration at which the compound masks the p-cresol odor and does not affect the citrus flavor, lower limit",[1],≥ 0.01 ppt
same,"concentration at which the compound masks the p-cresol odor and does not affect the citrus flavor, upper limit",[1],≤ 1 ppb
"O=C1CCCCC=CCCCCCCCCCO1 [1-Oxacycloheptadecan-7-En-2-One, 1-oxacycloheptadecan-7-en-2-one]",p-Cresol Odor Intensity,[1]; 0.01 ppt added,3.7 points
same,p-Cresol Odor Intensity,[1]; 0.1 ppt added,2.7 points
same,p-Cresol Odor Intensity,[1]; 1 ppb added,1.3 points
same,p-Cresol Odor Intensity,[1]; 1 ppt added,2.4 points
same,p-Cresol Odor Intensity,[1]; 10 ppb added,0.9 points
same,p-Cresol Odor Intensity,[1]; 10 ppt added,2.0 points
same,p-Cresol Odor Intensity,[1]; 100 ppb added,0.7 points
same,p-Cresol Odor Intensity,[1]; 100 ppt added,1.7 points
same,"concentration at which the compound masks the p-cresol odor and does not affect the citrus flavor, lower limit",[1],≥ 0.1 ppt
same,"concentration at which the compound masks the p-cresol odor and does not affect the citrus flavor, upper limit",[1],≤ 1 ppb
same,p-Cresol Odor Intensity,[2]; 4 ppb added,2.5 points
same,p-Cresol Odor Intensity,[2]; 40 ppb added,2.0 points
same,p-Cresol Odor Intensity,[2]; 40 ppt added,3.2 points
same,p-Cresol Odor Intensity,[2]; 400 ppb added,1.3 points
same,p-Cresol Odor Intensity,[2]; 400 ppt added,2.7 points
same,"concentration at which the compound masks the p-cresol odor and does not affect the citrus flavor, lower limit",[2],≥ 400 ppt
same,"concentration at which the compound masks the p-cresol odor and does not affect the citrus flavor, upper limit",[2],≤ 400 ppb
"O=C1CCCCCC=CCCCCCCCCO1 [1-Oxacycloheptadecan-8-En-2-One, 1-oxacycloheptadecan-8-en-2-one]",p-Cresol Odor Intensity,[3]; 1 ppb added,1.1 points
same,p-Cresol Odor Intensity,[3]; 1 ppt added,2.9 points
same,p-Cresol Odor Intensity,[3]; 10 ppb added,1.0 points
same,p-Cresol Odor Intensity,[3]; 10 ppt added,2.2 points
same,p-Cresol Odor Intensity,[3]; 100 ppt added,1.6 points
same,"concentration at which the compound masks the p-cresol odor and does not affect the citrus flavor, lower limit",[3],≥ 1 ppt
same,"concentration at which the compound masks the p-cresol odor and does not affect the citrus flavor, upper limit",[3],≤ 10 ppb
same,p-Cresol Odor Intensity,[1]; 0.01 ppt added,3.6 points
same,p-Cresol Odor Intensity,[1]; 0.1 ppt added,2.9 points
same,p-Cresol Odor Intensity,[1]; 1 ppb added,1.1 points
same,p-Cresol Odor Intensity,[1]; 1 ppt added,2.6 points
same,p-Cresol Odor Intensity,[1]; 10 ppb added,0.7 points
same,p-Cresol Odor Intensity,[1]; 10 ppt added,1.9 points
same,p-Cresol Odor Intensity,[1]; 100 ppb added,0.4 points
same,p-Cresol Odor Intensity,[1]; 100 ppt added,1.4 points
same,"concentration at which the compound masks the p-cresol odor and does not affect the citrus flavor, lower limit",[1],≥ 0.1 ppt
same,"concentration at which the compound masks the p-cresol odor and does not affect the citrus flavor, upper limit",[1],≤ 1 ppb
same,p-Cresol Odor Intensity,[4]; 1 ppb added,1.7 points
same,p-Cresol Odor Intensity,[4]; 1 ppt added,3.2 points
same,p-Cresol Odor Intensity,[4]; 10 ppb added,1.4 points
same,p-Cresol Odor Intensity,[4]; 10 ppt added,2.4 points
same,p-Cresol Odor Intensity,[4]; 100 ppt added,2.3 points
same,"concentration at which the compound masks the p-cresol odor and does not affect the ginger flavor, lower limit",[4]; [5],≥ 10 ppt
same,"concentration at which the compound masks the p-cresol odor and does not affect the ginger flavor, upper limit",[4]; [5],≤ 1 ppb
same,p-Cresol Odor Intensity,[2]; 4 ppb added,2.5 points
same,p-Cresol Odor Intensity,[2]; 40 ppb added,1.8 points
same,p-Cresol Odor Intensity,[2]; 40 ppt added,3.3 points
same,p-Cresol Odor Intensity,[2]; 400 ppb added,1.7 points
same,p-Cresol Odor Intensity,[2]; 400 ppt added,3.2 points
same,"concentration at which the compound masks the p-cresol odor and does not affect the citrus flavor, lower limit",[2],≥ 4 ppb
same,"concentration at which the compound masks the p-cresol odor and does not affect the citrus flavor, upper limit",[2],≤ 400 ppb
